Experimental findings from ChEMBL document CHEMBL3603750, “Synthesis and biological evaluation of 9-N-oxamyl sialosides as Siglec-7 ligands” (Bioorg Med Chem, 2015) are described below.

For the first assay, the target named is T1, Sialic acid-binding Ig-like lectin 7 (Homo sapiens, UniProt Q9Y286). Kind of assay: Binding affinity to human IgG1-fused human Siglec-7-FC (Gln19 to Gly357 residues) assessed as inhibition Siglec-7-Fc binding to RBC pre-incubated for 10 mins before 20 mins incubation with RBCs by flow cytometry. (In general: Flow cytometry measures light scatter and fluorescence of single cells or particles in a stream.)
T1 sequence (Q9Y286 whole entry, the tested form may be a part): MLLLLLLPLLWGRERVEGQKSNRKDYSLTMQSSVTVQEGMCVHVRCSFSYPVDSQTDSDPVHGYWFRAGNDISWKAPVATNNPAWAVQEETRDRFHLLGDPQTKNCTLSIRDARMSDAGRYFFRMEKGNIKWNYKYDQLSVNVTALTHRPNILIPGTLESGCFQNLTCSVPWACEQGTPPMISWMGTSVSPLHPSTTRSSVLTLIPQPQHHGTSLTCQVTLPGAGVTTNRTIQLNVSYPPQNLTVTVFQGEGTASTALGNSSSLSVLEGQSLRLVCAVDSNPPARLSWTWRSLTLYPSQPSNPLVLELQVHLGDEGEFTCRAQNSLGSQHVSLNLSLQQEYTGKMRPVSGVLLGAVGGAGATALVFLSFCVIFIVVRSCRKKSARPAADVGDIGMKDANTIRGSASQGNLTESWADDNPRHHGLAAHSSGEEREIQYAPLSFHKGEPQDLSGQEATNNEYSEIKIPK
In general, IC50 refers to the concentration that gives 50% inhibition. Regarding `CO[C@]1(C(=O)O)C[C@H](O)[C@@H](NC(C)=O)[C@H]([C@H](O)[C@H](O)CNC(=O)C(N)=O)O1`, the half-inhibitory concentration (IC50) was determined as 1.64 mM.
Same read-out and setting: the value for `CO[C@]1(C(=O)O)C[C@H](O)[C@@H](NC(C)=O)[C@H]([C@H](O)[C@H](O)CO)O1` was 8.07 mM.

A further assay concerns the target T1, Sialic acid-binding Ig-like lectin 7. In words: Potency index, ratio of IC50 for compound-1 to IC50 for test compound for binding affinity to human IgG1-fused human Siglec-7-FC (Gln19 to Gly357 residues) assessed as inhibition Siglec-7-Fc binding to RBC pre-incubated for 10 mins before 20 mins incubation with RBCs by flow cytometry.
As to `CCNC(=O)C(=O)NC[C@@H](O)[C@@H](O)[C@@H]1O[C@@](OC)(C(=O)O)C[C@H](O)[C@H]1NC(C)=O`, the Ratio IC50 is under 2.
On the same count and under the same terms, the value for `CO[C@]1(C(=O)O)C[C@H](O)[C@@H](NC(C)=O)[C@H]([C@H](O)[C@H](O)CNC(=O)C(N)=O)O1` was 4.1.
With `CNC(=O)C(=O)NC[C@@H](O)[C@@H](O)[C@@H]1O[C@@](OC)(C(=O)O)C[C@H](O)[C@H]1NC(C)=O`, the Ratio IC50 was under 2.
On the same count and under the same terms, the value for `CO[C@]1(C(=O)O)C[C@H](O)[C@@H](NC(C)=O)[C@H]([C@H](O)[C@H](O)CNC(=O)C(=O)NCc2ccccc2)O1` was 8; that for `CO[C@]1(C(=O)O)C[C@H](O)[C@@H](NC(C)=O)[C@H]([C@H](O)[C@H](O)CNC(=O)C(=O)Nc2ccccc2)O1` was 58.
On the same count and under the same terms, next, `CO[C@]1(C(=O)O)C[C@H](O)[C@@H](NC(C)=O)[C@H]([C@H](O)[C@H](O)CO)O1`: 1; `CCC(C)NC(=O)C(=O)NC[C@@H](O)[C@@H](O)[C@@H]1O[C@@](OC)(C(=O)O)C[C@H](O)[C@H]1NC(C)=O` (mixture of isomers): under 2.
Same read-out and setting: next, `CO[C@]1(C(=O)O)C[C@H](O)[C@@H](NC(C)=O)[C@H]([C@H](O)[C@H](O)CNC(=O)C(=O)NC(C)C)O1`: under 2.
Regarding `CO[C@]1(C(=O)O)C[C@H](O)[C@@H](NC(C)=O)[C@H]([C@H](O)[C@H](O)CNC(=O)C(=O)NC(C)(C)C)O1`, the Ratio IC50 is under 2.
Same read-out and setting: the value for `CO[C@]1(C(=O)O)C[C@H](O)[C@@H](NC(C)=O)[C@H]([C@H](O)[C@H](O)CNC(=O)C(=O)NCc2ccc(-c3ccccc3)cc2)O1` was 8.
